Data set [1] is described as follows: The drug is tested on Z-026 corresponding to metagenome with ENA study accession number: PRJEB37062 and ENA sample accession number: ERS12561825 for biotransformation under anaerobic condition. The drug concentrations were measured over 9 timepoints collected between 0 and 24 hours of incubation by liquid-chromatography-coupled mass spectrometry (LC–MS). The settings on record: 2 µM.

A short description of data set [2]: The drug is tested on Z-019 corresponding to rat gut metagenome with ENA study accession number: PRJEB37062 and ENA sample accession number: ERS12561818 for biotransformation under anaerobic condition. The drug concentrations were measured over 9 timepoints collected between 0 and 24 hours of incubation by liquid-chromatography-coupled mass spectrometry (LC–MS). The settings on record: 2 µM.

Data set [3] is described as follows: The drug is tested on Z-017 corresponding to mouse gut metagenome with ENA study accession number: PRJEB37062 and ENA sample accession number: ERS12561816 for biotransformation under anaerobic condition. The drug concentrations were measured over 9 timepoints collected between 0 and 24 hours of incubation by liquid-chromatography-coupled mass spectrometry (LC–MS). Particulars: 2 µM.

Data set [4] in a line: The drug is tested on Z-014 corresponding to rat gut metagenome with ENA study accession number: PRJEB37062 and ENA sample accession number: ERS12561814 for biotransformation under anaerobic condition. The drug concentrations were measured over 9 timepoints collected between 0 and 24 hours of incubation by liquid-chromatography-coupled mass spectrometry (LC–MS). Particulars: 2 µM.

A short description of data set [5]: The drug is tested on Z-013 corresponding to rabbit gut metagenome with ENA study accession number: PRJEB37062 and ENA sample accession number: ERS12561813 for biotransformation under anaerobic condition. The drug concentrations were measured over 9 timepoints collected between 0 and 24 hours of incubation by liquid-chromatography-coupled mass spectrometry (LC–MS). The settings on record: 2 µM.

Data set [6] in a line: The drug is tested on Z-006 corresponding to mouse gut metagenome with ENA study accession number: PRJEB37062 and ENA sample accession number: ERS12561806 for biotransformation under anaerobic condition. The drug concentrations were measured over 9 timepoints collected between 0 and 24 hours of incubation by liquid-chromatography-coupled mass spectrometry (LC–MS). Particulars: 2 µM.

Data set [7] in a line: The drug is tested on WLS-240 corresponding to human gut metagenome with ENA study accession number: PRJEB37062 and ENA sample accession number: ERS12561773 for biotransformation under anaerobic condition. The drug concentrations were measured over 9 timepoints collected between 0 and 24 hours of incubation by liquid-chromatography-coupled mass spectrometry (LC–MS). The settings on record: 2 µM.

The nature of data set [8]: The drug is tested on WLS-170 corresponding to human gut metagenome with ENA study accession number: PRJEB37062 and ENA sample accession number: ERS12561762 for biotransformation under anaerobic condition. The drug concentrations were measured over 9 timepoints collected between 0 and 24 hours of incubation by liquid-chromatography-coupled mass spectrometry (LC–MS). The settings on record: 2 µM.

A short description of data set [9]: The drug is tested on WLS-077 corresponding to human gut metagenome with ENA study accession number: PRJEB37062 and ENA sample accession number: ERS12561750 for biotransformation under anaerobic condition. The drug concentrations were measured over 9 timepoints collected between 0 and 24 hours of incubation by liquid-chromatography-coupled mass spectrometry (LC–MS). The settings on record: 2 µM.

Data set [10] is described as follows: The drug is tested on WLS-027 corresponding to human gut metagenome with ENA study accession number: PRJEB37062 and ENA sample accession number: ERS12561744 for biotransformation under anaerobic condition. The drug concentrations were measured over 9 timepoints collected between 0 and 24 hours of incubation by liquid-chromatography-coupled mass spectrometry (LC–MS). The settings on record: 2 µM.

For data set [11] the following is noted: human gut metagenome, 24 h, 2 µM.
The conditions of data set [12]: human gut metagenome, 24 h, 2 µM. The source holds these as a separate data set.
For data set [13] the following is noted: human gut metagenome, 24 h, 2 µM. The source holds these as a separate data set.
The conditions of data set [14]: human gut metagenome, 24 h, 2 µM. This is another data set of the same source.
The conditions of data set [15]: human gut metagenome, 24 h, 2 µM. The source holds these as a separate data set.
For data set [16] the following is noted: human gut metagenome, 24 h, 2 µM. The source holds these as a separate data set.
The conditions of data set [17]: human gut metagenome, 24 h, 2 µM. The source holds these as a separate data set.
For data set [18] the following is noted: human gut metagenome, 24 h, 2 µM. This is another data set of the same source.
The conditions of data set [19]: human gut metagenome, 24 h, 2 µM. The source holds these as a separate data set.
The conditions of data set [20]: human gut metagenome, 24 h, 2 µM. The source holds these as a separate data set.
Also: call rule not given here.

Consider `CCN(CC)CCOCCOC(=O)C1(c2ccccc2)CCCC1.O=C(O)CC(O)(CC(=O)O)C(=O)O` [CARBETAPENTANE CITRATE], for which the “Bacterial Biotransformation” value in [1], in data set [2], in data set [3], in [4], in [5] and in [6] was “Compound NOT metabolized” throughout. The “Bacterial Biotransformation” value in data set [7] is listed as “Compound metabolized”; in data set [8], “Compound metabolized”; in [9], “Compound metabolized”; in data set [10], “Compound metabolized”; in [11], “Compound NOT metabolized”; in [12] it was “Compound metabolized”. Also, the “Bacterial Biotransformation” value in data set [13] was “Compound metabolized”; in data set [14], “Compound metabolized”; in data set [15], “Compound metabolized”; in data set [16] it was “Compound metabolized”; in data set [17] it was “Compound metabolized”; in data set [18], “Compound NOT metabolized”. Moreover, the “Bacterial Biotransformation” value in data set [19] and in data set [20] was “Compound metabolized” in each case.

Take `O=C(O)COCCN1CCN(C(c2ccccc2)c2ccc(Cl)cc2)CC1` (stereo not given) [CETIRIZINE]: the “Bacterial Biotransformation” value in [1], in [2], in data set [3], in data set [4], in data set [5] and in data set [6] was “Compound NOT metabolized” each time. The “Bacterial Biotransformation” value in data set [7], in data set [8], in [9], in data set [10], in data set [11] and in data set [12] was “Compound metabolized” throughout. In addition, the “Bacterial Biotransformation” value in data set [13], in data set [14], in data set [15], in [16], in data set [17] and in [18] was “Compound metabolized” throughout. Further, the “Bacterial Biotransformation” value in [19] and in data set [20] was “Compound metabolized” in each case.

On to `CN/C(=N/CCSCc1nc[nH]c1C)NC#N` [CIMETIDINE], for which the “Bacterial Biotransformation” value in data set [1], in [2], in data set [3], in [4], in data set [5] and in data set [6] was “Compound NOT metabolized” each time. Also, the “Bacterial Biotransformation” value in data set [7] is reported as “Compound metabolized”; in [8], “Compound metabolized”; in [9], “Compound metabolized”; in [10], “Compound metabolized”; in [11] it was “Compound NOT metabolized”; in data set [12], “Compound metabolized”. For the same compound, the “Bacterial Biotransformation” value is “Compound metabolized” in data set [13]; “Compound NOT metabolized” in data set [14]; “Compound metabolized” in [15]; “Compound metabolized” in data set [16]; “Compound NOT metabolized” in data set [17]; “Compound NOT metabolized” in data set [18]. The “Bacterial Biotransformation” value in data set [19] and in data set [20] was “Compound metabolized” throughout.

`Br.CN(C)CCCC1(c2ccc(F)cc2)OCc2cc(C#N)ccc21` (stereo not given) [CITALOPRAM HYDROBROMIDE]: the “Bacterial Biotransformation” value in data set [1], in data set [2], in data set [3], in data set [4], in data set [5] and in [6] was “Compound NOT metabolized” in each case. The “Bacterial Biotransformation” value is given as “Compound metabolized” in data set [7]; “Compound metabolized” in data set [8]; “Compound NOT metabolized” in data set [9]; “Compound NOT metabolized” in data set [10]; “Compound NOT metabolized” in [11]; “Compound metabolized” in data set [12]. Also, the “Bacterial Biotransformation” value in data set [13] is reported as “Compound metabolized”; in [14] it was “Compound metabolized”; in [15] it was “Compound metabolized”; in data set [16], “Compound metabolized”; in data set [17], “Compound metabolized”; in [18], “Compound NOT metabolized”. Also, the “Bacterial Biotransformation” value in [19] and in data set [20] was “Compound metabolized” in each case.

For the compound `CN(C)CCC=C1c2ccccc2C=Cc2ccccc21` [CYCLOBENZAPRINE], the “Bacterial Biotransformation” value in data set [1], in [2], in data set [3], in data set [4], in [5] and in data set [6] was “Compound NOT metabolized” throughout. The “Bacterial Biotransformation” value in data set [7] is recorded as “Compound metabolized”; in data set [8] it was “Compound metabolized”; in data set [9], “Compound NOT metabolized”; in [10], “Compound metabolized”; in data set [11], “Compound metabolized”; in [12], “Compound NOT metabolized”. The “Bacterial Biotransformation” value in data set [13] was “Compound metabolized”; in data set [14] it was “Compound metabolized”; in data set [15], “Compound metabolized”; in data set [16], “Compound metabolized”; in data set [17], “Compound NOT metabolized”; in [18] it was “Compound NOT metabolized”. For the same compound, the “Bacterial Biotransformation” value was “Compound metabolized” in [19] and “Compound NOT metabolized” in data set [20].

Regarding `O=C(Nc1ccccc1)OCC(CN1CCCCC1)OC(=O)Nc1ccccc1` (stereo not given) [DIPERODON], the “Bacterial Biotransformation” value in data set [1], in data set [2], in data set [3], in data set [4], in data set [5] and in data set [6] was “Compound NOT metabolized” in each case. Moreover, the “Bacterial Biotransformation” value in [7] was “Compound metabolized”; in data set [8], “Compound metabolized”; in data set [9], “Compound NOT metabolized”; in data set [10], “Compound metabolized”; in [11] it was “Compound NOT metabolized”; in data set [12], “Compound metabolized”. Further, the “Bacterial Biotransformation” value in data set [13] is recorded as “Compound metabolized”; in [14], “Compound metabolized”; in data set [15] it was “Compound metabolized”; in data set [16], “Compound metabolized”; in data set [17], “Compound NOT metabolized”; in data set [18], “Compound NOT metabolized”. The “Bacterial Biotransformation” value in data set [19] and in data set [20] was “Compound metabolized” in each case.

Values taken from ChEMBL document CHEMBL5724914, “Linking interpersonal differences in gut microbiota composition and drug biotransformation activity” (2024).
